This note sets out measurements from ChEMBL document CHEMBL1154526, “Novel non-active site inhibitor of Cryptosporidium hominis TS-DHFR identified by a virtual screen” (Bioorg Med Chem Lett, 2009).

Numbering of substitutions follows the chain as printed.

Assay [1] is described as follows: Inhibition of Cryptosporidium hominis TS-DHFR by spectroscopic assay.
In assay [2] the test system is Cryptosporidium hominis. The note with it: 200 uM.
Description: Activity at Cryptosporidium hominis DHFR at 200 uM using dihydrofolate substrate by steady state competition assay
The subject of assay [3] is T1, Dihydrofolate reductase (Cryptosporidium hominis), Q27552 [D201A].
T1 sequence (whole entry): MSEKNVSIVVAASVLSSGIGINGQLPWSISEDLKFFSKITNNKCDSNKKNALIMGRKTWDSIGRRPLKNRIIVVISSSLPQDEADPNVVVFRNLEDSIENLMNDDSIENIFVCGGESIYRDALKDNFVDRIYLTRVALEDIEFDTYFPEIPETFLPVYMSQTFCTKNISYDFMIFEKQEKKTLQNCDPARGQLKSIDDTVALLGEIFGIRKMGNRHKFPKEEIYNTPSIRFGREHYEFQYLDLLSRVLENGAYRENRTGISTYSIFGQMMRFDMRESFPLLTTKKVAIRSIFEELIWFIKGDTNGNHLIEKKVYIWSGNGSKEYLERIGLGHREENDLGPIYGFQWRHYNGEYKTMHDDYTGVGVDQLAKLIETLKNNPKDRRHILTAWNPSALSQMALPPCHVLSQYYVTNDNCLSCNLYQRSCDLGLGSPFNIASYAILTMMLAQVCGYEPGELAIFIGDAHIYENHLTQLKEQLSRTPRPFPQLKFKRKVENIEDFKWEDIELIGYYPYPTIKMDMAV
In words: Inhibition of Cryptosporidium hominis DHFR D201A mutant. Also noted: scale not given: the % may be the effect or the level left.

Another assay addresses Thymidylate synthase (Homo sapiens, UniProt P04818). In words: Inhibition of human thymidylate synthase.
The target of a further assay is T2, Dihydrofolate reductase (Homo sapiens, UniProt P00374).
T2 sequence (P00374 whole entry): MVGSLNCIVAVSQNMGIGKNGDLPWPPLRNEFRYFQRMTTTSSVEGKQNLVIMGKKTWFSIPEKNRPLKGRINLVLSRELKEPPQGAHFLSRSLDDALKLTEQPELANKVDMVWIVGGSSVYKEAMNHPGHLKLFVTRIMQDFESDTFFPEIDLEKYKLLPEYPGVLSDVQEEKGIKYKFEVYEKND
In words: Inhibition of human DHFR.

Assay [4] relates to Cryptosporidium hominis. To be noted: 200 uM. The source holds these as a separate data set.
Description: Activity at Cryptosporidium hominis DHFR at 200 uM using NADPH substrate by steady state competition assay
Assay [5] relates to T3, Dihydrofolate reductase (Cryptosporidium hominis), Q27552 [R190G].
T3 sequence (whole entry): T1 sequence (whole entry) with R190G, A201D
In words: Inhibition of Cryptosporidium hominis DHFR R190G mutant. Also noted: scale not given: the % may be the effect or the level left.

A short description of assay [6]: Inhibition of Cryptosporidium hominis 80 to 250 nM TS-DHFR by spectroscopic assay.
The target of assay [7] is T4, Bifunctional dihydrofolate reductase-thymidylate synthase (Toxoplasma gondii, UniProt Q07422).
T4 sequence (Q07422 whole entry): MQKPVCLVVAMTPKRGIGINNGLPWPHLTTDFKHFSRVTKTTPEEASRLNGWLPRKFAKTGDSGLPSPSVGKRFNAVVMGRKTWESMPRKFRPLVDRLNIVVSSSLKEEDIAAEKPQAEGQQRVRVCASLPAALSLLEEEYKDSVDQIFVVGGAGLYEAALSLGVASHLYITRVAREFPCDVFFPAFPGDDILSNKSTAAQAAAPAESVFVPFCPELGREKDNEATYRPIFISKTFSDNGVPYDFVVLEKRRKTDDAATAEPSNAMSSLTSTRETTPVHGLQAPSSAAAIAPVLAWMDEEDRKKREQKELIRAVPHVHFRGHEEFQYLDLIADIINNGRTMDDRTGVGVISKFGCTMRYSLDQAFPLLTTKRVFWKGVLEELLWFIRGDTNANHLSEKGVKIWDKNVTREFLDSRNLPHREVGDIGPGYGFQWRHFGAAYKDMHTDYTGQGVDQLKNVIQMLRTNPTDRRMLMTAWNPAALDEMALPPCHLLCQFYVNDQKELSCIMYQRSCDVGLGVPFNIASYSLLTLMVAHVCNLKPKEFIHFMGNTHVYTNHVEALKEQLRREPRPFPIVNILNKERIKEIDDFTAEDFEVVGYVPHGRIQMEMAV
The assay can be described thus: Inhibition of Toxoplasma gondii TS-DHFR.

A short description of assay [8]: Binding affinity to Cryptosporidium hominis TS-DHFR by burst amplitude assay.

Chain of Thymidylate synthase (P04818 whole entry): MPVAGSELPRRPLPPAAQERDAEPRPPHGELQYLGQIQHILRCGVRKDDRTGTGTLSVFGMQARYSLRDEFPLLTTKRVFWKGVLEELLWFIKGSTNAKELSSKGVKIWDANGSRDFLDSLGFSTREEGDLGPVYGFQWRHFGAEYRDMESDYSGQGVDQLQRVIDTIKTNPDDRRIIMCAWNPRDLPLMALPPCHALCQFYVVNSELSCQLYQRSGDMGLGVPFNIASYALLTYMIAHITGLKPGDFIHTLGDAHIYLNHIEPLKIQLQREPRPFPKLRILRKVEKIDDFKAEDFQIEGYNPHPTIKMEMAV

Usually IC50 stands for the concentration at which inhibition is half-maximal. In the case of `CC(=O)N[C@@H]1[C@@H](O)[C@H](O[C@@H]2O[C@H](CO)[C@@H](O)[C@H](O)[C@H]2NC(C)=O)[C@@H](CO)O[C@H]1O` [CHITODEXTRIN], the IC50 in assay [1] was over 500 µM.

Take `C[C@H]1O[C@@H](O[C@H]2[C@@H](O)C[C@H](O[C@H]3[C@@H](O)C[C@H](O[C@H]4CC[C@@]5(C)[C@H](CC[C@@H]6[C@@H]5C[C@@H](O)[C@]5(C)[C@@H](C7=CC(=O)OC7)CC[C@]65O)C4)O[C@@H]3C)O[C@@H]2C)C[C@H](O)[C@@H]1O` [DIGOXIN]: the IC50 in assay [1] is over 500 µM.

In assay [1], `CC(=O)N1CCN(c2ccc(OCC3COC(Cn4ccnc4)(c4ccc(Cl)cc4Cl)O3)cc2)CC1` (configuration not stated) [KETOCONAZOLE] displayed an IC50 of over 500 µM.

One may read the Km as the concentration of substrate that gives half-maximal velocity. A word on the Vmax: it is the rate approached at saturating substrate. Broadly, the Kd is the concentration at which binding is half-saturated. With `Cc1cc2nc3c(=O)[nH]c(=O)nc-3n(C[C@H](O)[C@H](O)[C@H](O)COP(=O)(O)O)c2cc1C` [RIBOFLAVIN 5'-PHOSPHATE], the Km in the assay on Cryptosporidium hominis [2] is 7.2 µM; in the assay with Cryptosporidium hominis [4] it was 3 µM. Also, the Vmax in the assay on Cryptosporidium hominis [2] was determined as 1.8 µmol/min; with Cryptosporidium hominis [4], 1.77 µmol/min. Moreover, the Activity in assay [3] turned out to be 10%; in assay [5], 20%. Besides, the 50% inhibitory concentration (IC50) at Thymidylate synthase is over 500 µM; at Dihydrofolate reductase, 325 µM; in assay [1] it was 55 µM; in [6], 55 µM; in [7], over 500 µM. Binding in assay [8] was characterised by a dissociation constant (Kd) of 48 µM.

On to `COc1cccc2c1C(=O)C1=C(C2=O)C(O)C2=C(C1O)[C@@H](C[C@@H]1C[C@H](N)[C@@H](O)[C@H](C)O1)C[C@@](O)(/C(C)=N/NC(=O)c1ccccc1)C2` (some centres not stated) [RUBIDAZONE], for which, in assay [1], the IC50 is over 500 µM.

In assay [1], `COC1=C(N)C(=O)c2nc(-c3nc(C(=O)O)c(C)c(-c4ccc(OC)c(OC)c4O)c3N)ccc2C1=O` [STREPTONIGRIN] had an IC50 of 80 µM.
